Data reported in ChEMBL document CHEMBL1201862, “PubChem BioAssay data set” (2004).
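Method: 48-hour compound exposure of cells in 96-well plates, five concentrations, linear interpolation of endpoints. GI50 is the concentration that inhibits growth by half.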 Activity calls are given as the source filed them. No stated cut-off is given here; in the data, active = GI50 up to about 1.1 µM and inactive = higher.

Columns and labels:
Test in all cases: inhibition of tumour cell growth, NCI panel, 48 h
MCF7 = tested on: MCF7
SK-MEL-28 = tested on: SK-MEL-28
TK-10 = tested on: TK-10
SN12C = tested on: SN12C
M14 = tested on: M14
CCRF-CEM = tested on: CCRF-CEM
PC-3 = tested on: PC-3
KM12 = tested on: KM12
Malme-3M = tested on: Malme-3M
HL-60 = tested on: HL-60
T47D = tested on: T47D
UO-31 = tested on: UO-31
HCT-15 = tested on: HCT-15
A498 = tested on: A498
SW-620 = tested on: SW-620
HCT-116 = tested on: HCT-116
NCI/ADR-RES = tested on: NCI/ADR-RES
ACHN = tested on: ACHN
SK-OV-3 = tested on: SK-OV-3

| SMILES | GI50 (MCF7) | GI50 (SK-MEL-28) | GI50 (TK-10) | GI50 (SN12C) | GI50 (M14) | GI50 (CCRF-CEM) | GI50 (PC-3) | GI50 (KM12) | GI50 (Malme-3M) | GI50 (HL-60) | GI50 (T47D) | GI50 (UO-31) | GI50 (HCT-15) | GI50 (A498) | GI50 (SW-620) | GI50 (HCT-116) | GI50 (NCI/ADR-RES) | GI50 (ACHN) | GI50 (SK-OV-3) |
| --- | --- | --- | --- | --- | --- | --- | --- | --- | --- | --- | --- | --- | --- | --- | --- | --- | --- | --- | --- |
| O=C(O)c1ccc(C(=O)Nc2cccc3ccccc23)c(C(=O)O)c1 | > 100 µM (inactive) | > 100 µM (inactive) | > 100 µM (inactive) | > 100 µM (inactive) | > 100 µM (inactive) | > 100 µM (inactive) | > 100 µM (inactive) | > 100 µM (inactive) | > 100 µM (inactive) | > 100 µM (inactive) | > 100 µM (inactive) | > 100 µM (inactive) | > 100 µM | > 100 µM (inactive) | > 100 µM (inactive) | > 100 µM (inactive) | > 100 µM (inactive) | > 100 µM (inactive) | > 100 µM (inactive) |
| OC1COC(OCc2ccccc2)C(O)C1O (centres undefined) | > 100 µM (inactive) | > 100 µM (inactive) | > 100 µM (inactive) | > 100 µM (inactive) | > 100 µM (inactive) | > 100 µM (inactive) | > 100 µM (inactive) | > 100 µM (inactive) | > 100 µM (inactive) | > 100 µM (inactive) | > 100 µM (inactive) | > 100 µM (inactive) | > 100 µM | > 100 µM (inactive) | > 100 µM (inactive) | > 100 µM (inactive) | > 100 µM (inactive) | > 100 µM (inactive) | > 100 µM (inactive) |
| COc1ccccc1OCC(=N/NC(=O)c1ccncc1)/N=C/c1cccnc1 | > 100 µM (inactive) | > 100 µM (inactive) | > 100 µM (inactive) | – | > 100 µM (inactive) | > 100 µM (inactive) | > 100 µM (inactive) | > 100 µM (inactive) | > 100 µM (inactive) | > 100 µM (inactive) | > 100 µM (inactive) | – | > 100 µM | > 100 µM (inactive) | > 100 µM (inactive) | > 100 µM (inactive) | > 100 µM (inactive) | > 100 µM (inactive) | > 100 µM (inactive) |
| COc1ccccc1C1C2=C(COC2=O)Oc2cc3c(cc21)OCO3 (centres undefined) | 1.67 µM (inactive) | 4.73 µM (inactive) | 12.4 µM (inactive) | 3.82 µM (inactive) | 1.4 µM (inactive) | 2.13 µM (inactive) | 2.12 µM (inactive) | 1.33 µM (inactive) | 14.1 µM (inactive) | 0.44 µM (active) | 2.32 µM (inactive) | 3.56 µM (inactive) | 1.16 µM | 2.23 µM (inactive) | 1.38 µM (inactive) | 1.87 µM (inactive) | 2.31 µM (inactive) | 14 µM (inactive) | 3.46 µM (inactive) |
| O=[N+]([O-])C(C(Cl)=C(Cl)Cl)=C(n1nnc2ccccc21)n1nnc2ccccc21 | 28.1 µM (inactive) | 23.5 µM (inactive) | 46.1 µM (inactive) | 22.6 µM (inactive) | 30.7 µM (inactive) | 18.6 µM (inactive) | 37.1 µM (inactive) | > 58.5 µM (inactive) | 21.7 µM (inactive) | 3.94 µM (inactive) | 40.7 µM (inactive) | 25.6 µM (inactive) | 25.9 µM | > 57.9 µM (inactive) | 5.21 µM (inactive) | 20.5 µM (inactive) | 32.4 µM (inactive) | 25.6 µM (inactive) | > 43.6 µM (inactive) |
| CN(C)NC(=S)Nc1ccccc1Br | > 100 µM (inactive) | > 100 µM (inactive) | > 100 µM (inactive) | – | > 100 µM (inactive) | > 100 µM (inactive) | > 100 µM (inactive) | > 100 µM (inactive) | > 100 µM (inactive) | > 100 µM (inactive) | > 100 µM (inactive) | > 100 µM (inactive) | > 100 µM | > 100 µM (inactive) | > 100 µM (inactive) | > 100 µM (inactive) | > 100 µM (inactive) | > 100 µM (inactive) | > 100 µM (inactive) |
| CC(=O)c1cccc(NC(=O)/C(=N\NC(=S)NN)C2C(=O)Nc3ccccc3[S+]2[O-])c1 (centres undefined) | > 100 µM (inactive) | > 100 µM (inactive) | > 100 µM (inactive) | > 100 µM (inactive) | > 100 µM (inactive) | > 100 µM (inactive) | > 100 µM (inactive) | > 100 µM (inactive) | > 100 µM (inactive) | > 100 µM (inactive) | > 100 µM (inactive) | > 100 µM (inactive) | – | > 100 µM (inactive) | > 100 µM (inactive) | > 100 µM (inactive) | > 100 µM (inactive) | > 100 µM (inactive) | > 100 µM (inactive) |
